According to patent publication US7767659B2, “Synthesis of naturally occurring ecteinascidins and related compounds” (Pharma Mar, S.A., priority 2002, dated 2010):
Read-outs that look alike come from different tables or passages of the source.

Tests used:
PANC-1 = experiment: Inhibition of cells growth by colorimetric assay (SRB)
How it was run: (§1)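 Colorimetric SRB read (490 nm) on triplicate wells after 48 h at 37 °C, 5% CO2. Dose range 10 to 10^−8 μg/ml; 5×10^3 cells/well pre-attached 18 h.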

SK-BR-3 = experiment: as above
How it was run: as §1

K-562 = experiment: as above
How it was run: as §1

LoVo-Dox = experiment: as above
How it was run: as §1

SK-MEL-28 = experiment: as above; conditions: for GI50: read-out: GI50 MEL-28; for CC50: read-out: LC50 MEL-28
How it was run: as §1

LNCaP = experiment: as above; conditions: for GI50: read-out: GI50 LNCAP; for CC50: read-out: LC50 LNCAP
How it was run: as §1

IGROV-ET = experiment: as above
How it was run: as §1

DU-145 = experiment: as above; conditions: for GI50: read-out: GI50 DU145; for CC50: read-out: LC50 DU145
How it was run: as §1

HeLa = experiment: as above
How it was run: as §1

HeLa-APL = experiment: as above
How it was run: as §1

IGROV-1 = experiment: as above
How it was run: as §1

LoVo = experiment: cells
How it was run: as §1

HT-29 = experiment: cells; conditions: for GI50: read-out: GI50 HT29; for CC50: read-out: LC50 HT29
How it was run: as §1

A-549 = experiment: cells; conditions: for GI50: read-out: GI50 A549; for CC50: read-out: LC50 A549
How it was run: as §1

COc1c(C)cc2c(c1O)C1C3C4SCC(NC(C)=O)C(=O)OCC(c5c6c(c(C)c(OC(C)=O)c54)OCO6)N3C(C#N)C(C2)N1C(C)=O (stereo not drawn) [compound 35]
PANC-1 TGI (PANC-1; SRB assay, 48 hours exposure, PANC-1, total growth inhibition): 1.41E−06 Molar
GI50 (PANC-1; read-out: PANC-1 GI50, SRB assay, 48 hours exposure, PANC-1): 471 nM
CC50 (PANC-1; read-out: PANC-1 LC50, SRB assay, 48 hours exposure, PANC-1, cell killing): 14400 nM
SK-BR3 TGI (SK-BR-3; SRB assay, 48 hours exposure, SK-BR3, total growth inhibition): 1.10E−06 Molar
GI50 (SK-BR-3; read-out: SK-BR3 GI50, SRB assay, 48 hours exposure, SK-BR3): 396 nM
CC50 (SK-BR-3; read-out: SK-BR3 LC50, SRB assay, 48 hours exposure, SK-BR3, cell killing): 9350 nM
K562 TGI (K-562; SRB assay, 48 hours exposure, K562, total growth inhibition): 1.13E−06 Molar
GI50 (K-562; read-out: K562 GI50, SRB assay, 48 hours exposure, K562): 193 nM
CC50 (K-562; read-out: K562 LC50, SRB assay, 48 hours exposure, K562, cell killing): 9770 nM
LOVO-DOX TGI (LoVo-Dox; SRB assay, 48 hours exposure, LOVO-DOX, total growth inhibition): 1.44E−05 Molar
GI50 (LoVo-Dox; read-out: LOVO-DOX GI50, SRB assay, 48 hours exposure, LOVO-DOX): 5750 nM
CC50 (LoVo-Dox; read-out: LOVO-DOX LC50, SRB assay, 48 hours exposure, LOVO-DOX, cell killing): 14400 nM
TGI MEL-28 (SK-MEL-28; MEL-28, SRB, 48 hours exposure): 8.63E−07 Molar
GI50 (SK-MEL-28; MEL-28, SRB, 48 hours exposure): 390 nM
CC50 (SK-MEL-28; MEL-28, SRB, 48 hours exposure): 3190 nM
TGI LNCAP (LNCaP; LNCAP, SRB, 48 hours exposure): 3.97E−07 Molar
GI50 (LNCaP; LNCAP, SRB, 48 hours exposure): 189 nM
CC50 (LNCaP; LNCAP, SRB, 48 hours exposure): 834 nM
IGROV-ET TGI (IGROV-ET; SRB assay, 48 hours exposure, IGROV-ET, total growth inhibition): 6.35E−06 Molar
GI50 (IGROV-ET; read-out: IGROV-ET GI50, SRB assay, 48 hours exposure, IGROV-ET): 2300 nM
CC50 (IGROV-ET; read-out: IGROV-ET LC50, SRB assay, 48 hours exposure, IGROV-ET, cell killing): 14400 nM
TGI DU145 (DU-145; DU145, SRB, 48 hours exposure): 1.20E−06 Molar
GI50 (DU-145; DU145, SRB, 48 hours exposure): 570 nM
CC50 (DU-145; DU145, SRB, 48 hours exposure): 10300 nM
HELA TGI (HeLa; SRB assay, 48 hours exposure, HELA, total growth inhibition): 8.37E−07 Molar
GI50 (HeLa; read-out: HELA GI50, SRB assay, 48 hours exposure, HELA): 396 nM
CC50 (HeLa; read-out: HELA LC50, SRB assay, 48 hours exposure, HELA, cell killing): 3390 nM
HELA-APL TGI (HeLa-APL; SRB assay, 48 hours exposure, HELA-APL, total growth inhibition): 1.09E−06 Molar
GI50 (HeLa-APL; read-out: HELA-APL GI50, SRB assay, 48 hours exposure, HELA-APL): 458 nM
CC50 (HeLa-APL; read-out: HELA-APL LC50, SRB assay, 48 hours exposure, HELA-APL, cell killing): 5920 nM
IGROV TGI (IGROV-1; SRB assay, 48 hours exposure, IGROV, total growth inhibition): 1.69E−06 Molar
GI50 (IGROV-1; read-out: IGROV GI50, SRB assay, 48 hours exposure, IGROV): 420 nM
CC50 (IGROV-1; read-out: IGROV LC50, SRB assay, 48 hours exposure, IGROV, cell killing): 8630 nM
LOVO TGI (LoVo; SRB assay, 48 hours exposure, LOVO, total growth inhibition): 2.14E−06 Molar
GI50 (LoVo; read-out: LOVO GI50, SRB assay, 48 hours exposure, LOVO): 564 nM
CC50 (LoVo; read-out: LOVO LC50, SRB assay, 48 hours exposure, LOVO, cell killing): 14400 nM
TGI HT29 (HT-29; HT29, SRB, 48 hours exposure): 8.18E−06 Molar
GI50 (HT-29; HT29, SRB, 48 hours exposure): 602 nM
CC50 (HT-29; HT29, SRB, 48 hours exposure): 14400 nM
TGI A549 (A-549; A549, SRB, 48 hours exposure): 5.96E−06 Molar
GI50 (A-549; A549, SRB, 48 hours exposure): 2930 nM
CC50 (A-549; A549, SRB, 48 hours exposure): 12100 nM

C=CCN1[C@@H]2c3c(cc(C)c(OC)c3O)C[C@H]1[C@H](C#N)N1C2[C@@H]2SCC(N)C(=O)OC[C@H]1c1c3c(c(C)c(OC(C)=O)c12)OCO3 (stereo partly drawn) [compound 12]
GI50 (PANC-1; Homo sapiens, PANC-1, 48 h, read-out: GI50 PANC-1): 472 nM
CC50 (PANC-1; Homo sapiens, PANC-1, 48 h, read-out: LC50 PANC-1): 4070 nM
IC (TGI) (PANC-1; Homo sapiens, PANC-1, 48 h, read-out: TGI PANC-1): 953 nM
GI50 (SK-BR-3; Homo sapiens, SK-BR-3, 48 h, read-out: GI50 SK-BR3): 256 nM
CC50 (SK-BR-3; Homo sapiens, SK-BR-3, 48 h, read-out: LC50 SK-BR3): 979 nM
IC (TGI) (SK-BR-3; Homo sapiens, SK-BR-3, 48 h, read-out: TGI SK-BR3): 501 nM
GI50 (K-562; Homo sapiens, K562, 48 h, read-out: GI50 K562): 110 nM
CC50 (K-562; Homo sapiens, K562, 48 h, read-out: LC50 K562): 15400 nM
IC (TGI) (K-562; Homo sapiens, K562, 48 h, read-out: TGI K562): 2510 nM
GI50 (LoVo-Dox; Homo sapiens, 48 h, read-out: GI50 LOVO-DOX): 504 nM
CC50 (LoVo-Dox; Homo sapiens, 48 h, read-out: LC50 LOVO-DOX): 12200 nM
IC (TGI) (LoVo-Dox; Homo sapiens, 48 h, read-out: TGI LOVO-DOX): 971 nM
GI50 (SK-MEL-28; Homo sapiens, SK-MEL-28, 48 h): 350 nM
CC50 (SK-MEL-28; Homo sapiens, SK-MEL-28, 48 h): 1030 nM
IC (TGI) (SK-MEL-28; Homo sapiens, SK-MEL-28, 48 h, read-out: TGI MEL-28): 603 nM
GI50 (LNCaP; Homo sapiens, LNCaP, 48 h): 82.5 nM
CC50 (LNCaP; Homo sapiens, LNCaP, 48 h): 711 nM
IC (TGI) (LNCaP; Homo sapiens, LNCaP, 48 h, read-out: TGI LNCAP): 251 nM
GI50 (IGROV-ET; Homo sapiens, 48 h, read-out: GI50 IGROV-ET): 635 nM
CC50 (IGROV-ET; Homo sapiens, 48 h, read-out: LC50 IGROV-ET): 3820 nM
IC (TGI) (IGROV-ET; Homo sapiens, 48 h, read-out: TGI IGROV-ET): 1070 nM
GI50 (DU-145; Homo sapiens, DU-145, 48 h): 535 nM
CC50 (DU-145; Homo sapiens, DU-145, 48 h): 4220 nM
IC (TGI) (DU-145; Homo sapiens, DU-145, 48 h, read-out: TGI DU145): 1020 nM
GI50 (HeLa; Homo sapiens, HeLa, 48 h, read-out: GI50 HELA): 344 nM
CC50 (HeLa; Homo sapiens, HeLa, 48 h, read-out: LC50 HELA): 1120 nM
IC (TGI) (HeLa; Homo sapiens, HeLa, 48 h, read-out: TGI HELA): 621 nM
GI50 (HeLa-APL; Homo sapiens, 48 h, read-out: GI50 HELA-APL): 244 nM
CC50 (HeLa-APL; Homo sapiens, 48 h, read-out: LC50 HELA-APL): 914 nM
IC (TGI) (HeLa-APL; Homo sapiens, 48 h, read-out: TGI HELA-APL): 472 nM
GI50 (IGROV-1; Homo sapiens, IGROV-1, 48 h, read-out: GI50 IGROV): 225 nM
CC50 (IGROV-1; Homo sapiens, IGROV-1, 48 h, read-out: LC50 IGROV): 1050 nM
IC (TGI) (IGROV-1; Homo sapiens, IGROV-1, 48 h, read-out: TGI IGROV): 486 nM
GI50 (LoVo; Homo sapiens, LoVo, 48 h, read-out: GI50 LOVO): 399 nM
CC50 (LoVo; Homo sapiens, LoVo, 48 h, read-out: LC50 LOVO): 3210 nM
IC (TGI) (LoVo; Homo sapiens, LoVo, 48 h, read-out: TGI LOVO): 808 nM
GI50 (HT-29; Homo sapiens, HT-29, 48 h): 503 nM
CC50 (HT-29; Homo sapiens, HT-29, 48 h): 15400 nM
IC (TGI) (HT-29; Homo sapiens, HT-29, 48 h, read-out: TGI HT29): 1270 nM
GI50 (A-549; Homo sapiens, A549, 48 h): 338 nM
CC50 (A-549; Homo sapiens, A549, 48 h): 1160 nM
IC (TGI) (A-549; Homo sapiens, A549, 48 h, read-out: TGI A549): 624 nM
